Earlier results as cited in patent publication US20250082671A1, “ANIMAL FEED ADDITIVE COMPOSITION, PRE-MIX FEED COMPOSITION AND MANUFACTURING METHOD FOR SUB CLINICAL HYPCALCEMIA RELIEF, ENERGY IMPROVEMENT AND INCREASED MILK PRODUCTION” (Chemlock Metals Corp., priority 2023, published 2025).

Test system: cows
Conditions: multiparous cows compared to un-supplemented ones

For chromium propionate complex, the “dry matter intake (DMI)” value is listed as “on average higher”.
